Test results published in patent publication US20260000735A1, “ENHANCED DIFFERENTIATION OF BETA CELLS” (Vertex Pharmaceuticals Incorporated, priority 2019, published 2026).

Experiments:
Type in all cases: cell-based
[1] = test system: SC-β cells (Nkx6.1/Isl1 double positive cells); assay: Percent SC-β cells (Nkx6.1/Isl1 double positive) by FACS; conditions: for SC-β cell percent in stage 6: added to the culture medium during days 1-10 of stage 6, JJKK 048 1 μM, KML 29 10 μM, NF 1819 10 μM
Description: (§1) In this instance cryopreserved stage 5 individual cells were thawed and cultured in a modified stage 5 (S5) medium during the first 4 days of Stage 6 (S6d1-d4) […], with subsequent culture of the cells in Stage 6 (S6) medium (see experimental outline in FIG. 2).
(§2) The effect of supplementing the modified S5 medium used in stage 6 with one or more saturated fatty acid of unsaturated fatty acid was analyzed. The fatty acids analyzed included palmitate (saturated fatty acid), oleic acid (unsaturated fatty acid), linoleic acid (unsaturated fatty acid), and palmitoleic acid (unsaturated fatty acid) (see protocol is outlined in FIG. 20). The fatty acid free HSA+fatty acid were stirred for 1 hour at 37° C.
MGLL (monoacylglycerol lipase) is a serine hydrolase that catalyzes the conversion of monoacylglycerides to free fatty acids and glycerol. The effect of three highly specific MGLL inhibitors (JJKK 048 (1 μM), KML 29 (10 μM), NF 1819 (10 μM)) on SC-β cell production was analyzed.
Stage 5 insulin-positive endocrine cell clusters were differentiated from stem cells as described herein. The insulin-positive endocrine cell clusters were dissociated such that the majority of the dissociated cells were now individual cells, and the cells were then cryopreserved, and thawed. The thawed individual cells were then differentiated into β cell clusters through a stage 6 differentiation. […] The base medium of MDCB 131 with 0.05% HSA was used for days 5-11 of stage 6 (FIG. 30, FIG. 31).

[2] = test system: thawed cryopreserved stage 5 cells; assay: Cell recovery / viable cell number in stage 6 culture after thaw of cryopreserved stage 5 cells; conditions: inclusion in DS3 media
Description: The insulin-positive endocrine progenitor cell clusters were dissociated such that the majority of the dissociated cells were individual cells, and the cells were cryopreserved, and thawed. The thawed cells are then differentiated into β cell clusters through a stage 6 differentiation. The stage 6 culture medium comprises DMEM F12 base with 1% human serum albumin (HSA), and optionally 1.5 μM zinc (“DS2 medium”). […] Thus, whether alteration of the S6 medium could improve recovery was analyzed.
In this instance cryopreserved stage 5 individual cells were thawed and cultured in a modified stage 5 (S5) medium during the first 4 days of Stage 6 (S6d1-d4) (approximately 72 hours), with subsequent culture of the cells in Stage 6 (S6) medium (see experimental outline in FIG. 2).
Several factor drop out experiments were conducted to identify the contribution of each factor.

SC-β cells = assay: Number / recovery / yield of SC-β cells in stage 6; conditions: day 10 of stage 6; with 0.5% HSA
Description: as §1, §2

SC-islet cell clusters = assay: Cell cluster size, morphology, homogeneity, re-aggregation and stability (microscopy); conditions: day 6 of stage 6 (S6d6), fatty acid supplementation
Description: as §2
A select number of metabolites were included in the DS6 medium, including: glutamate, acetate, β hydroxybutarate, L-caratine, taurine, formate, and biotin.

SC-β cells / SC-islets = assay: Glucose stimulated insulin secretion (GSIS), human C-peptide per 1000 cells; conditions: day 10 of stage 6 (S6d10); addition post day 4 of stage 6
Description: FIG. 18A is a bar graph showing the glucose stimulated insulin secretion (GSIS) of cells at day 12 of stage 6 (S6d12). GSIS was measured as the level of human C-peptide (pM) per 1000 cells after glucose stimulation. The cells were cultured in stage 6 (S6) medium+1% HSA for days 1-12 of stage 6.
A range of 2.8 mM and 20 mM glucose was used to stimulate GSIS (See experimental protocol FIG. 13).

Row | Structure (SMILES) | SC-β cell percent in stage 6 [1] | size of the cell clusters (SC-islet cell clusters) | other results
1 | O=C(N1CCC(C(c2ccc3c(c2)OCO3)c2ccc3c(c2)OCO3)CC1)n1cncn1 [JJKK 048] | around 50% | – | –
2 | O=S(=O)([O-])[O-].[Zn+2] [ZnSO4] | – | – | S6d4 viable cell number [2]: greatly improves S6d4 viable cell number
3 | CCCCCCCCCCCCCCCC(=O)O [palmitate, palmitic acid] | – | enhances the size of the cell clusters | total number of SC-β cells recovered (SC-β cells): enhanced the total number of SC-β cells recovered; percent of SC-β cells (Nkx6.1/Isl1 double positive cells) recovered ([1]; fatty acid added to the modified S5 medium, days 1-4 of stage 6): improved; GSIS (SC-β cells / SC-islets): improves GSIS
4 | CCCCC/C=C\C/C=C\CCCCCCCC(=O)O [linoleic acid] | – | enhances the size of the cell clusters | –
5 | O=C(OC(C(F)(F)F)C(F)(F)F)N1CCC(C(O)(c2ccc3c(c2)OCO3)c2ccc3c(c2)OCO3)CC1 [KML 29] | around 50% | – | –
6 | O=C1[C@H](c2ccc(F)cc2)[C@@H](c2ccc3c(c2)OCO3)N1C1CCN(C(=O)n2cncn2)CC1 [NF 1819] | around 50% | – | –
